In PubChem BioAssay (NCI):
Several values for one entry are separate records, joined by “and”; a condition that tells them apart may be missing. Equal entries are not always repeated.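 Five concentrations, 48 hours, 96-well plates. GI50 marks 50% less growth. At the TGI there is no net growth.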

Columns and labels:
Test in all cases: growth of human tumour cells (NCI), 48 h
[1] = tested on: MDA-N
[2] = tested on: SK-MEL-5 melanoma
[3] = tested on: OVCAR-8 ovarian
[4] = tested on: A549 NSCLC
[5] = tested on: OVCAR-5 ovarian
[6] = tested on: CAKI-1 renal
[7] = tested on: HCT-116 colon
[8] = tested on: HOP-92 NSCLC
[9] = tested on: SF-268 CNS
[10] = tested on: COLO 205 colon
[11] = tested on: RXF 393 renal
[12] = tested on: MOLT-4 leukemia
[13] = tested on: NCI/ADR-RES ovarian
[14] = tested on: RPMI-8226 leukemia
[15] = tested on: MCF7 breast
[16] = tested on: SF-539 CNS
[17] = tested on: A498 renal

Compound | TGI [1] | TGI [2] [µM] | TGI [3] [µM] | TGI [4] [µM] | TGI [5] [µM] | TGI [6] [µM] | TGI [7] [µM] | TGI [8] [µM] | TGI [9] [µM] | TGI [10] [µM] | TGI [11] [µM] | TGI [12] [µM] | TGI [13] [µM] | TGI [14] [µM] | TGI [15] [µM] | TGI [16] [µM] | TGI [17] [µM] | GI50 [1] [µM] | GI50 [12] [µM] | GI50 [13] [µM]
CCCN(CCC)C(=S)Sc1nc(C)nc(N2CCN(c3nc(C)nc(SC(=S)N(CCC)CCC)c3[N+](=O)[O-])CC2)c1[N+](=O)[O-] | > 100 µM | 28.2 | > 100 | > 84.5 | 45.4 | 34.4 | 16.9 | 22.4 | 98.5 | 19 | > 29.5 | 28 | > 100 | > 38.2 | 11.9 | > 80.6 | – | – | – | –
O=C1C2C3C4C1C1C2[C@H](OCc2ccccc2)C3C1[C@H]4OCc1ccccc1 (stereo partly drawn) | > 100 µM | > 100 | > 100 | > 100 | 56 | > 100 | > 100 | 66.3 | > 100 | 82.5 | > 100 | > 100 | 54.8 | > 100 | > 100 | > 100 | > 100 | – | – | –
CC(=O)OCC1OC(n2c3c(c(-c4ccc(C)cc4)c(C#N)c2=S)C(=O)CC(C)(C)C3)C(OC(C)=O)C(OC(C)=O)C1OC(C)=O (stereo not drawn) | 41.5 µM | > 100 | > 100 | > 100 | > 100 | > 100 | > 100 | > 100 | 94.9 | > 100 | 92.2 | > 100 | > 100 | > 100 | > 100 | 67.2 | > 100 | – | – | –
CSC(=S)CC(O)[C@@H]1CC2c3ccccc3C1c1ccccc12 (stereo partly drawn) | 28.3 µM | 30.5 | 39.2 | 34.4 | 33.4 | – | 20.9 | 38.8 | 45.4 | 36.4 | 7.54 | 8.24 | 54.7 | 20.7 | 62.1 | 37.8 | 37.3 | – | – | –
CCCCNC(=O)OCCN=c1c2ccccc2ccc2ccccc12 | > 100 µM | > 100 | > 100 | > 100 | > 100 | > 100 | > 100 | > 100 | > 100 | > 100 | > 100 | > 100 | > 100 | > 100 | > 100 | > 100 | – | – | – | –
Cc1cccc(Nc2nc3ccccc3nc2NS(=O)(=O)c2ccc(N)cc2)c1 | > 100 µM | > 100 | > 100 | > 100 | > 100 | > 100 | > 100 | > 100 | > 100 | > 100 | 70.5 | 59.5 | > 100 | > 100 | > 100 | 93.9 | – | – | – | –
Clc1ccc(Cc2nc3ccccc3o2)cc1 | > 100 µM | > 100 | > 100 | > 100 | > 100 | > 100 | > 100 | > 100 | > 100 | > 100 | 97.8 | > 100 | > 100 | > 100 | > 100 | > 100 | – | – | – | –
C/C=C1/CC(C(=O)OC)N(C(=O)OCc2ccccc2)C1=S (stereo not drawn) | > 100 µM | > 100 | > 100 | > 100 | > 100 | > 100 | > 100 | > 100 | > 100 | > 100 | > 100 | > 100 | > 100 | > 100 | > 100 | – | > 100 | – | – | –
Cc1ccc(-c2n[nH]c(=O)n2/N=C\c2ccccc2O)cc1 | > 100 µM | > 100 | > 100 | > 100 | > 100 | > 100 | > 100 | > 100 | > 100 | > 100 | > 100 | > 100 | > 100 | > 100 | > 100 | > 100 | – | – | – | –
COC(=O)c1cc2ccc(O)c(O)c2cn1 | 2.89 µM and 3.69 µM | 28.2 | 28.6 | 63.1 | 35 | 25.7 | 29.2 | 26.3 | 30.8 | 33.1 | 32.7 | > 100 | 46.1 | > 100 | 8.1 | 33.5 | – | 1.89 | 4.6 | 20.4
COC(=O)C(=O)C(C(=O)C(=O)Nc1ccc(Cl)c(Cl)c1)c1nc2ccc(C(=O)c3ccccc3)cc2[nH]c1=O (stereo not drawn) | > 100 µM | > 100 | > 100 | > 100 | > 100 | > 100 | > 100 | > 100 | > 100 | – | > 100 | > 100 | > 100 | > 100 | > 100 | > 100 | > 100 | – | – | –
COC(=O)C(Cc1ccccc1)NC(=O)CSc1nnc(COc2ccc(Cl)cc2)n1-c1ccccc1 (stereo not drawn) | 43.7 µM | 31.4 | – | > 100 | 54.6 | – | 54.6 | 76.7 | > 100 | 41.8 | 43 | > 100 | 55.2 | 73.5 | 58.5 | 51.3 | 56.1 | – | – | –
N=C(N)SCc1ccc2c(c1)S(=O)(=O)c1ccccc1O2 | 77 µM | – | > 100 | 39.8 | 47.3 | 51.7 | 63.1 | 42.8 | 93.1 | > 100 | 47.5 | > 100 | > 100 | > 100 | 34.7 | 55.7 | 35.1 | – | – | –
C#CCN(Cc1ccc2nc(-c3ccccc3)c(Cl)nc2c1)c1ccc(F)cc1 | > 100 µM | > 100 | > 100 | > 100 | > 100 | > 100 | > 100 | > 100 | > 100 | > 100 | – | 44.6 | > 100 | > 100 | > 100 | > 100 | > 100 | – | – | –
